Measured values from ChEMBL document CHEMBL3046358, “Multiple Pro-197 substitutions in the acetolactate synthase of rigid ryegrass (Lolium rigidum) and their impact on chlorsulfuron activity and plant growth” (Crop Prot, 2012).

Assays:
Acetolactate synthase [1] = biological target: T1, Acetolactate synthase (Lolium rigidum, UniProt A7XBP7); assay: Inhibition of acetolactate synthase Ala-197/Ala-197 mutant in Lolium rigidum accession A20 leaves extracts by acetolactate production assay; details: read-out: I50
Lolium rigidum [2] = assay: Herbicidal activity against Lolium rigidum accession A13 assessed as emergence rate applied at 4 times pre-emergence recommended rate relative to untreated control; assay type: functional
[3] = biological target: T2, Acetolactate synthase (Lolium rigidum) (UniProt A7XBP7); assay: Resistance index, ratio of I50 for acetolactate synthase Ala-197/Ala-197 mutant in Lolium rigidum accession A06 leaves extracts to I50 for acetolactate synthase in Lolium rigidum accession A01 leaves extracts
T2 sequence (whole entry): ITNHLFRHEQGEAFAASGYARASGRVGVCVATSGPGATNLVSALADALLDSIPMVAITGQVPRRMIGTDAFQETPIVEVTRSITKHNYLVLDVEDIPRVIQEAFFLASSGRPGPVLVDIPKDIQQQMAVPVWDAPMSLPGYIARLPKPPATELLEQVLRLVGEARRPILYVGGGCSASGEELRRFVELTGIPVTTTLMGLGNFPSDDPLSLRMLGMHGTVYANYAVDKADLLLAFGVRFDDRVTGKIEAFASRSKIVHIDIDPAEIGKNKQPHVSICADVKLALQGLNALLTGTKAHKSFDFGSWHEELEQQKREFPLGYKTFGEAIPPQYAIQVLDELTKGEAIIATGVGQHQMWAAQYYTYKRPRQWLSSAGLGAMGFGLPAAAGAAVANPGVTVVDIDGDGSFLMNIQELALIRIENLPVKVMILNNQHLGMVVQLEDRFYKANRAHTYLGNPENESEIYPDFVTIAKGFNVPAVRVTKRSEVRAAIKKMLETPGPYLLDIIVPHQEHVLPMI

Acetolactate synthase [4] = biological target: T1, Acetolactate synthase; assay: Inhibition of acetolactate synthase Ala-197/Ala-197 mutant in Lolium rigidum accession A19 leaves extracts by acetolactate production assay; details: read-out: I50
Lolium rigidum [5] = assay: Herbicidal activity against Lolium rigidum accession A08 assessed as fresh weight reduction applied at 1 times pre-emergence recommended rate relative to untreated control; assay type: functional; design: scale not given: the % may be the effect or the level left
Lolium rigidum [6] = assay: Herbicidal activity against Lolium rigidum accession A13 assessed as emergence rate applied at 1 times pre-emergence recommended rate applied in pots where terbufos had been incorporated into the soil relative to untreated control; assay type: functional
Lolium rigidum [7] = assay: Herbicidal activity against Lolium rigidum accession A06 assessed as emergence rate applied at 4 times pre-emergence recommended rate relative to untreated control; assay type: functional
[8] = biological target: T2, Acetolactate synthase (Lolium rigidum); assay: Resistance index, ratio of I50 for acetolactate synthase Leu-197/Leu-197 mutant in Lolium rigidum accession A08 leaves extracts to I50 for acetolactate synthase in Lolium rigidum accession A01 leaves extracts
Lolium rigidum [9] = assay: Herbicidal activity against Lolium rigidum accession A04 assessed as emergence rate applied at 1 times pre-emergence recommended rate applied in pots where terbufos had been incorporated into the soil relative to untreated control; assay type: functional
Lolium rigidum [10] = assay: Herbicidal activity against Lolium rigidum accession A01 assessed as emergence rate applied at 1 times pre-emergence recommended rate applied in pots where terbufos had been incorporated into the soil relative to untreated control; assay type: functional
Lolium rigidum [11] = assay: Herbicidal activity against Lolium rigidum accession A03 assessed as emergence rate applied at 1 times pre-emergence recommended rate applied in pots where terbufos had been incorporated into the soil relative to untreated control; assay type: functional
Lolium rigidum [12] = assay: Herbicidal activity against Lolium rigidum accession A10 assessed as emergence rate applied at 4 times pre-emergence recommended rate relative to untreated control; assay type: functional
Lolium rigidum [13] = assay: Herbicidal activity against Lolium rigidum accession A10 assessed as fresh weight reduction applied at 4 times pre-emergence recommended rate relative to untreated control; assay type: functional; design: scale not given: the % may be the effect or the level left
Acetolactate synthase [14] = biological target: Acetolactate synthase (Lolium rigidum, UniProt A7XBP7, P197L); assay: Inhibition of acetolactate synthase Pro-197/Leu-197 mutant in Lolium rigidum accession A07 leaves extracts by acetolactate production assay; details: read-out: I50
Acetolactate synthase [15] = biological target: T1, Acetolactate synthase; assay: Inhibition of acetolactate synthase Leu-197/Leu-197 mutant in Lolium rigidum accession A18 leaves extracts by acetolactate production assay; details: read-out: I50
Lolium rigidum [16] = assay: Herbicidal activity against Lolium rigidum accession A15 assessed as fresh weight reduction applied at 1 times pre-emergence recommended rate relative to untreated control; assay type: functional; design: scale not given: the % may be the effect or the level left
Lolium rigidum [17] = assay: Herbicidal activity against Lolium rigidum accession A11 assessed as emergence rate applied at 1 times pre-emergence recommended rate relative to untreated control; assay type: functional
Lolium rigidum [18] = assay: Herbicidal activity against Lolium rigidum accession A09 assessed as fresh weight reduction applied at 1 times pre-emergence recommended rate applied in pots where terbufos had been incorporated into the soil relative to untreated control; assay type: functional; design: scale not given: the % may be the effect or the level left
Lolium rigidum [19] = assay: Herbicidal activity against Lolium rigidum accession A15 assessed as fresh weight reduction applied at 1 times pre-emergence recommended rate applied in pots where terbufos had been incorporated into the soil relative to untreated control; assay type: functional; design: scale not given: the % may be the effect or the level left
Lolium rigidum [20] = assay: Herbicidal activity against Lolium rigidum accession A04 assessed as emergence rate applied at 1 times pre-emergence recommended rate relative to untreated control; assay type: functional
Lolium rigidum [21] = assay: Herbicidal activity against Lolium rigidum accession A05 assessed as fresh weight reduction applied at 1 times pre-emergence recommended rate applied in pots where terbufos had been incorporated into the soil relative to untreated control; assay type: functional; design: scale not given: the % may be the effect or the level left
[22] = biological target: T2, Acetolactate synthase (Lolium rigidum); assay: Resistance index, ratio of I50 for acetolactate synthase Pro-197/Leu-197 mutant in Lolium rigidum accession A07 leaves extracts to I50 for acetolactate synthase in Lolium rigidum accession A01 leaves extracts
Lolium rigidum [23] = assay: Herbicidal activity against Lolium rigidum accession A08 assessed as emergence rate applied at 4 times pre-emergence recommended rate relative to untreated control; assay type: functional
Acetolactate synthase [24] = biological target: T3, Acetolactate synthase (Lolium rigidum, UniProt A7XBP7); assay: Inhibition of acetolactate synthase in Lolium rigidum accession A01 leaves extracts by acetolactate production assay; details: read-out: I50
T3 sequence (A7XBP7 whole entry): T2 sequence (whole entry)

[25] = biological target: T2, Acetolactate synthase (Lolium rigidum); assay: Resistance index, ratio of I50 for acetolactate synthase Pro-197/Pro-197 mutant in Lolium rigidum accession A11 leaves extracts to I50 for acetolactate synthase in Lolium rigidum accession A01 leaves extracts
Lolium rigidum [26] = assay: Herbicidal activity against Lolium rigidum accession A12 assessed as fresh weight reduction applied at 4 times pre-emergence recommended rate relative to untreated control; assay type: functional; design: scale not given: the % may be the effect or the level left
Lolium rigidum [27] = assay: Herbicidal activity against Lolium rigidum accession A12 assessed as emergence rate applied at 1 times pre-emergence recommended rate applied in pots where terbufos had been incorporated into the soil relative to untreated control; assay type: functional
Acetolactate synthase [28] = biological target: T1, Acetolactate synthase; assay: Inhibition of acetolactate synthase Ala-197/Ala-197 mutant in Lolium rigidum accession A06 leaves extracts by acetolactate production assay; details: read-out: I50
Lolium rigidum [29] = assay: Herbicidal activity against Lolium rigidum accession A09 assessed as emergence rate applied at 4 times pre-emergence recommended rate relative to untreated control; assay type: functional
Lolium rigidum [30] = assay: Herbicidal activity against Lolium rigidum accession A07 assessed as fresh weight reduction applied at 1 times pre-emergence recommended rate applied in pots where terbufos had been incorporated into the soil relative to untreated control; assay type: functional; design: scale not given: the % may be the effect or the level left
Lolium rigidum [31] = assay: Herbicidal activity against Lolium rigidum accession A06 assessed as emergence rate applied at 1 times pre-emergence recommended rate applied in pots where terbufos had been incorporated into the soil relative to untreated control; assay type: functional
Lolium rigidum [32] = assay: Herbicidal activity against Lolium rigidum accession A13 assessed as fresh weight reduction applied at 4 times pre-emergence recommended rate relative to untreated control; assay type: functional; design: scale not given: the % may be the effect or the level left
Lolium rigidum [33] = assay: Herbicidal activity against Lolium rigidum accession A13 assessed as emergence rate applied at 1 times pre-emergence recommended rate relative to untreated control; assay type: functional
Lolium rigidum [34] = assay: Herbicidal activity against Lolium rigidum accession A11 assessed as emergence rate applied at 4 times pre-emergence recommended rate relative to untreated control; assay type: functional

COc1nc(C)nc(NC(=O)NS(=O)(=O)c2ccccc2Cl)n1 [CHLORSULFURON]
IC50 (Acetolactate synthase [1]): 1090 nM
Activity (Lolium rigidum [2]): 1%
Ratio [3]: 470
IC50 (Acetolactate synthase [4]): 18600 nM
Activity (Lolium rigidum [5]): 9%
Activity (Lolium rigidum [6]): 0%
Activity (Lolium rigidum [7]): 84%
Ratio [8]: 564
Activity (Lolium rigidum [9]): 2%
Activity (Lolium rigidum [10]): 1%
Activity (Lolium rigidum [11]): 1%
Activity (Lolium rigidum [12]): 0%
Activity (Lolium rigidum [13]): 100%
IC50 (Acetolactate synthase [14]): 1820 nM
IC50 (Acetolactate synthase [15]): 1620 nM
Activity (Lolium rigidum [16]): 94%
Activity (Lolium rigidum [17]): 42%
Activity (Lolium rigidum [18]): 94%
Activity (Lolium rigidum [19]): 97%
Activity (Lolium rigidum [20]): 2%
Activity (Lolium rigidum [21]): 0%
Ratio [22]: 61
Activity (Lolium rigidum [23]): 45%
IC50 (Acetolactate synthase [24]): 30 nM
Ratio [25]: 1
Activity (Lolium rigidum [26]): 99%
Activity (Lolium rigidum [27]): 0%
IC50 (Acetolactate synthase [28]): 14100 nM
Activity (Lolium rigidum [29]): 1%
Activity (Lolium rigidum [30]): 1%
Activity (Lolium rigidum [31]): 92%
Activity (Lolium rigidum [32]): 99%
Activity (Lolium rigidum [33]): 1%
Activity (Lolium rigidum [34]): 1%
